The term IC50 denotes the concentration at which inhibition is half-maximal. A high value points to weaker potency in that assay.

For this experiment, the target named is PD-L1 (Homo sapiens (Human), UniProt Q9NZQ7). As to the kind of experiment: PD-L1 HTRF assay (PD-1/PD-L1 interaction). To be noted: PD-L1 His 6 nM, PD-1 Fc 6 nM; inhibitors 3-fold diluted from 20 μM. Type of experiment: binding. The procedure: PD-L1 small molecule inhibitors were diluted by 3-fold starting from 20 μM and a final concentration of 0.001 μM and added to the well. PD-1 Fc protein was added at the final concentration of 6 nM. PD-L1 His protein, PD-L1 small molecule inhibitors, and PD1 Fc proteins were added to the well in this order, with each 5 μl volume, and were incubated for 15 minutes at room temperature. […] The plate was read using PerkinElmer Envision plate reader and data was analyzed by Prism 6 software.
On the technique in general: TR-FRET usually uses a lanthanide donor and a delayed reading to cut background.

PD-L1, sequence (Q9NZQ7 19-238): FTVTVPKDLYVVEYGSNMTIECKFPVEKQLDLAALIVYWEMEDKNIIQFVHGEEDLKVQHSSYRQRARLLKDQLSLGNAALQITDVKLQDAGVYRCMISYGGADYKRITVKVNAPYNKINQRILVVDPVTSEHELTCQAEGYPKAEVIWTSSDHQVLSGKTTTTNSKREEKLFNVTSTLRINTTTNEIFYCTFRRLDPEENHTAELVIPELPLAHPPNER

Turning to “5-(((1,3-dihydroxypropan-2-yl)amino)methyl)-N-(3′-(5-(((2-hydroxyethyl)amino)methyl)picolinamido)-2,2′-dimethyl-[1,1′-biphenyl]-3-yl)picolinamide [Example 36]”, the 50% inhibitory concentration (IC50) was 0.4 nM.
With `Cc1c(COc2ccc(C3=NCCN3)c(OCc3cccc(C#N)c3)c2)cccc1-c1ccccc1` [Example 1, 3-((2-(4,5-Dihydro-1H-imidazol-2-yl)-5-((2-methyl-[1,1′-biphenyl]-3-yl)methoxy)phenoxy)methyl)benzonitrile], the midpoint of inhibition, the IC50, lay at 280 nM. Compared with the last molecule, the IC50 is about 700-fold higher.
Next, `Cc1c(COc2ccc(-c3ncc[nH]3)c(OCc3cccc(C#N)c3)c2)cccc1-c1ccccc1` [Example 2, 3-[[2-(1H-Imidazol-2-yl)-5-[(2-methyl-3-phenyl-phenyl)methoxy]phenoxy]methyl] benzonitrile]: 20000 nM; `Cc1c(COc2ccc(C3=NCCN3C)c(OCc3cccc(C#N)c3)c2)cccc1-c1ccccc1` [Example 3, 3-[[2-(1-Methyl-4,5-dihydroimidazol-2-yl)-5-[(2-methyl-3-phenyl-phenyl)methoxy]phenoxy]methyl]benzonitrile]: 320 nM.
In turn, `Cc1c(COc2ccc(-c3nccn3C)c(OCc3cccc(C#N)c3)c2)cccc1-c1ccccc1` [Example 4, 3-[[2-(1-methylimidazol-2-yl)-5-[(2-methyl-3-phenyl-phenyl)methoxy]phenoxy]methyl]benzonitrile] showed an IC50 of 5400 nM.
Next, `Cc1c(COc2ccc(-c3nc(CO)c[nH]3)c(OCc3cccc(C#N)c3)c2)cccc1-c1ccccc1` [Example 5, 3-[[2-[4-(Hydroxymethyl)-1H-imidazol-2-yl]-5-[(2-methyl-3-phenyl-phenyl)methoxy]phenoxy]methyl]benzonitrile]: 16000 nM; `Cc1c(COc2ccc(C3=NCCN3CCO)c(OCc3cccc(C#N)c3)c2)cccc1-c1ccccc1` [Example 6, 3-[[2-[1-(2-Hydroxyethyl)-4,5-dihydroimidazol-2-yl]-5-[(2-methyl-3-phenyl-phenyl)methoxy]phenoxy]methyl]benzonitrile]: 53 nM.
`Cc1c(COc2ccc(-c3nccn3CCO)c(OCc3cccc(C#N)c3)c2)cccc1-c1ccccc1` [Example 7, 3-[[2-[1-(2-Hydroxyethyl)imidazol-2-yl]-5-[(2-methyl-3-phenyl-phenyl)methoxy]phenoxy]methyl]benzonitrile] returned an IC50 of 1800 nM.
In turn, `CC(=O)NCc1c[nH]c(-c2ccc(OCc3cccc(-c4ccccc4)c3C)cc2OCc2cccc(C#N)c2)n1` [Example 8, N-[[2-[2-[(3-Cyanophenyl)methoxy]-4-[(2-methyl-3-phenyl-phenyl)methoxy]phenyl]-1H-imidazol-4-yl]methyl]acetamide] yielded an IC50 of 19000 nM.
`Cc1c(COc2ccc(C3=NCCCN3)c(OCc3cccc(C#N)c3)c2)cccc1-c1ccccc1` [Example 9, 3-[[5-[(2-Methyl-3-phenyl-phenyl)methoxy]-2-(1,4,5,6-tetrahydropyrimidin-2-yl)phenoxy]methyl]benzonitrile] displayed an IC50 of 150 nM. Against the preceding molecule, the IC50 is about 130-fold lower.
`Cc1c(COc2ccc(C3=NCC(O)CN3)c(OCc3cccc(C#N)c3)c2)cccc1-c1ccccc1` (stereo not drawn) [Example 10, 3-[[2-(5-Hydroxy-1,4,5,6-tetrahydropyrimidin-2-yl)-5-[(2-methyl-3-phenyl-phenyl)methoxy]phenoxy]methyl]benzonitrile] registered an IC50 of 100 nM.
Next, `Cc1c(COc2ccc(C3=NCCCN3C)c(OCc3cccc(C#N)c3)c2)cccc1-c1ccccc1` [Example 11, 3-[[2-(1-Methyl-5,6-dihydro-4H-pyrimidin-2-yl)-5-[(2-methyl-3-phenyl-phenyl)methoxy]phenoxy]methyl]benzonitrile]: 300 nM.
In the case of `Cc1c(COc2ccc(C3=NCCCN3CCO)c(OCc3cccc(C#N)c3)c2)cccc1-c1ccccc1` [Example 12, 3-[[2-[1-(2-Hydroxyethyl)-5,6-dihydro-4H-pyrimidin-2-yl]-5-[(2-methyl-3-phenyl-phenyl)methoxy]phenoxy]methyl]benzonitrile], the IC50 was 110 nM.
For the molecule `Cc1c(COc2ccc(/C(=N/CCO)NCCO)c(OCc3cccc(C#N)c3)c2)cccc1-c1ccccc1` [Example 13, 2-[(3-Cyanophenyl)methoxy]-N,N′-bis(2-hydroxyethyl)-4-[(2-methyl-3-phenyl-phenyl)methoxy]benzamidine], the IC50 was 170 nM. This IC50 lies about 1.5-fold higher than the previous one.
As to `CC(=O)NCC/N=C(\NCCNC(C)=O)c1ccc(OCc2cccc(-c3ccccc3)c2C)cc1OCc1cccc(C#N)c1` [Example 14, N-[2-[[(Z)—N-(2-Acetamidoethyl)-C-[2-[(3-cyanophenyl)methoxy]-4-[(2-methyl-3-phenyl-phenyl)methoxy]phenyl]carbonimidoyl]amino]ethyl]acetamide], the IC50 was found to be 330 nM. This IC50 is about 1.9-fold higher than that of the molecule before.
With `Cc1c(COc2ccc(C3=NCC(O)CN3)c(OCc3cncc(C#N)c3)c2)cccc1-c1ccccc1` (stereo not drawn) [Example 15, 5-((2-(5-Hydroxy-1,4,5,6-tetrahydropyrimidin-2-yl)-5-((2-methyl-[1,1′-biphenyl]-3-yl)methoxy)phenoxy)methyl)nicotinonitrile], half-maximal inhibition (IC50) required 15 nM.
Molecule `Cc1c(COc2cc(OCc3cncc(C#N)c3)c(C3=NCC(O)CN3)cc2Cl)cccc1-c1cccc(OCCCN2CCC(O)CC2)c1C` (stereo not drawn) [Example 16, 5-[[4-Chloro-5-[[3-[3-[3-(4-hydroxy-1-piperidyl)propoxy]-2-methyl-phenyl]-2-methyl-phenyl]methoxy]-2-(5-hydroxy-1,4,5,6-tetrahydropyrimidin-2-yl)phenoxy]methyl]pyridine-3-carbonitrile] registered an IC50 of 1.2 nM.
On to `Cc1c(COc2cc(OCc3cncc(C#N)c3)c(C3=NCCCN3CCO)cc2Cl)cccc1-c1cccc(OCCCN2CCC(O)CC2)c1C` [Example 17, 5-[[4-Chloro-2-[1-(2-hydroxyethyl)-5,6-dihydro-4H-pyrimidin-2-yl]-5-[[3-[3-[3-(4-hydroxy-1-piperidyl)propoxy]-2-methyl-phenyl]-2-methyl-phenyl]methoxy]phenoxy]methyl] pyridine-3-carbonitrile], for which the IC50 worked out at 1.5 nM.
`Cc1c(COc2cc(OCc3cncc(C#N)c3)c(C3=NC(C(=O)O)CCN3)cc2Cl)cccc1-c1cccc(OCCCN2CCC(O)CC2)c1C` (stereo not drawn) [Example 18, 2-[5-Chloro-2-[(5-cyano-3-pyridyl)methoxy]-4-[[3-[3-[3-(4-hydroxy-1-piperidyl)propoxy]-2-methyl-phenyl]-2-methyl-phenyl]methoxy]phenyl]-1,4,5,6-tetrahydropyrimidine-4-carboxylic acid] displayed a half-maximal inhibitory concentration (IC50) of 1.2 nM. The IC50 values of the last two molecules are within 1.5-fold of each other.
On to `Cc1c(COc2cc(OCc3cncc(C#N)c3)c(C3=NC(C(=O)O)CN3)cc2Cl)cccc1-c1cccc(OCCCN2CCC(O)CC2)c1C` (stereo not drawn) [Example 19, 2-[5-Chloro-2-[(5-cyano-3-pyridyl)methoxy]-4-[[3-[3-[3-(4-hydroxy-1-piperidyl)propoxy]-2-methyl-phenyl]-2-methyl-phenyl]methoxy]phenyl]-4,5-dihydro-1H-imidazole-4-carboxylic acid], for which the IC50 was found to be 1.2 nM.
Consider `COC(=O)c1c[nH]c(-c2cc(Cl)c(OCc3cccc(-c4cccc(OCCCN5CCC(O)CC5)c4C)c3C)cc2OCc2cncc(C#N)c2)n1` [Example 20, Methyl 2-(5-chloro-2-((5-cyanopyridin-3-yl)methoxy)-4-((3′-(3-(4-hydroxypiperidin-1-yl)propoxy)-2,2′-dimethyl-[1,1′-biphenyl]-3-yl)methoxy)phenyl)-1H-imidazole-5-carboxylate], for which the IC50 worked out at 10 nM.
With `Cc1c(COc2cc(OCc3cncc(C#N)c3)c(C3=NCC(OCC(=O)O)CN3)cc2Cl)cccc1-c1cccc(OCCCN2CCC(O)CC2)c1C` (stereo not drawn) [Example 21, 2-[[2-[5-Chloro-2-[(5-cyano-3-pyridyl)methoxy]-4-[[3-[3-[3-(4-hydroxy-1-piperidyl)propoxy]-2-methyl-phenyl]-2-methyl-phenyl]methoxy]phenyl]-1,4,5,6-tetrahydropyrimidin-5-yl]oxy] acetic acid], inhibition was half-maximal at 0.8 nM (IC50).
`Cc1c(COc2cc(OCc3cncc(C#N)c3)c(C3=NCCN3CCO)cc2Cl)cccc1-c1cccc(OCCCN2CCC(O)CC2)c1C` [Example 22, 5-[[4-Chloro-2-[1-(2-hydroxyethyl)-4,5-dihydroimidazol-2-yl]-5-[[3-[3-[3-(4-hydroxy-1-piperidyl)propoxy]-2-methyl-phenyl]-2-methyl-phenyl]methoxy]phenoxy]methyl]pyridine-3-carbonitrile] showed an IC50 of 3.8 nM.
For `Cc1c(COc2cc(OCc3cncc(C#N)c3)c(C3=NCC(O)CN3CCO)cc2Cl)cccc1-c1cccc(OCCCN2CCC(O)CC2)c1C` (stereo not drawn) [Example 23], the IC50 worked out at 14 nM.
As for `Cc1c(COc2cc(OCc3cncc(C#N)c3)c(C3=NCCN3CC(=O)O)cc2Cl)cccc1-c1cccc(OCCCN2CCC(O)CC2)c1C` [Example 24, 2-[2-[5-Chloro-2-[(5-cyano-3-pyridyl)methoxy]-4-[[3-[3-[3-(4-hydroxy-1-piperidyl)propoxy]-2-methyl-phenyl]-2-methyl-phenyl]methoxy]phenyl]-4,5-dihydroimidazol-1-yl]acetic acid], half-maximal inhibition (IC50) was put at 1.1 nM.
Next, `Cc1c(COc2cc(OCc3cncc(C#N)c3)c(C3=NCC(O)CN3)cc2Cl)cccc1-c1cccc(OCC(CN2CCC(O)CC2)c2ccccc2)c1C` (stereo not drawn) [Example 25, 5-[[4-chloro-5-[[3-[3-[3-(4-hydroxy-1-piperidyl)-2-phenyl-propoxy]-2-methyl-phenyl]-2-methyl-phenyl]methoxy]-2-(5-hydroxy-1,4,5,6-tetrahydropyrimidin-2-yl)phenoxy]methyl]pyridine-3-carbonitrile]: 30 nM.
On to `Cc1c(COc2cc(OCc3cncc(C#N)c3)c(C3=NCC(O)CN3)cc2Cl)cccc1-c1cccc(OCC(CO)c2ccccc2)c1C` (stereo not drawn) [Example 26, 5-[[4-Chloro-5-[[3-[3-(3-hydroxy-2-phenyl-propoxy)-2-methyl-phenyl]-2-methyl-phenyl]methoxy]-2-(5-hydroxy-1,4,5,6-tetrahydropyrimidin-2-yl)phenoxy]methyl]pyridine-3-carbonitrile], for which half-maximal inhibition (IC50) was put at 7.4 nM.
